# Test results as given in patent publication US20250092065A1, “2-(INDAZOL-5-YL)-6-(PIPERIDIN-4-YL)-1,7-NAPHTHYRIDINE DERIVATIVES AND RELATED COMPOUNDS AS MODULATORS FOR SPLICING NUCLEIC ACIDS AND FOR THE TREATMENT OF PROLIFERATIVE DISEASES” (REMIX THERAPEUTICS INC., priority 2022, published 2025).
# Counter-ions that a name gives are not always drawn. Like-named read-outs stand apart in the source and are kept apart here.
# Columns and labels:
# [1] = test system: HTT mRNA; test: RT-qPCR splicing assay, HTT mRNA canonical (CJ) and alternative (AJ) junction; format: cell-based, human; conditions: Homo sapiens; for AC50: HTT alternative junction mRNA increase, read-out: HTT AJ (increase in alternative junction mRNA, AC50)
# Procedure, shortened: (§1)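 Splice switching quantified in compound-treated A673/K562 cells after 24 h exposure (top dose 10 uM, 3-fold steps, ≤0.25% DMSO), using CJ and AJ qPCR assays run at least in duplicate. RQ derived by 2^(−ΔΔCt), then percentage response.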
# [2] = test system: MYB mRNA; test: RT-qPCR splicing assay, MYB mRNA canonical (CJ) and alternative (AJ) junction; format: cell-based, human; conditions: Homo sapiens; for AC50: MYB alternative junction mRNA increase, read-out: MYB AJ (increase in alternative junction mRNA, AC50)
# Procedure, shortened: as §1
# [3] = test system: SMN2 mRNA; test: RT-qPCR splicing assay, SMN2 mRNA; format: cell-based, human; conditions: Homo sapiens, canonical junction qPCR panel, Table 4; read-out: SMN2 IC50 (decrease in CJ mRNA levels)
# Procedure, shortened: as §1
# [4] = test system: Target C; test: RT-qPCR canonical junction panel assay, Target C mRNA; format: cell-based; conditions: Table 4, read-out: Target C IC50 (decrease in CJ mRNA levels)
# Procedure, shortened: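 A673 or K562 cells treated with compound; CJ mRNA quantified by junction-spanning RT-qPCR probe after cDNA synthesis, normalised to GAPDH, GUSB or PPIA and DMSO (2^−ΔΔCt), scaled to set ΔCt assay window; IC50 from 4-parameter fit of CJ decrease.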
# [5] = test system: K562 cells; test: Cell Titer Glo 2.0 cell viability (toxicity) assay, K562; conditions: 500 cells/well, 72 hours
# [6] = RT-qPCR, HTT canonical junction mRNA decrease, read-out: HTT CJ (decrease in canonical junction mRNA, IC50)
# [7] = canonical junction qPCR panel, Table 4, read-out: HTT IC50 (decrease in CJ mRNA levels)
# [8] = RT-qPCR, MYB canonical junction mRNA decrease, read-out: MYB CJ (decrease in canonical junction mRNA, IC50)
# [9] = canonical junction qPCR panel, Table 4, read-out: MYB IC50 (decrease in CJ mRNA levels)
SMILES,AC50 ([1]; RT-qPCR),"IC50 [1, 6]","IC50 [1, 7]",AC50 ([2]; RT-qPCR),"IC50 [2, 8]","IC50 [2, 9]",IC50 [3],IC50 [4],"Effect of Exemplary Compounds on Cell Viability, K562 [5]"
"Cc1c(O)c(-c2nc(C(N)=O)c3cc(N4C[C@@H](C)N[C@@H](C)C4)ccc3n2)cc2cn(C)nc12 [Compound 784, 6-[(3R,5S)-3,5-dimethylpiperazin-1-yl]-2-(6-hydroxy-2,7-dimethylindazol-5-yl)quinazoline-4-carboxamide]",> 10000 nM,1000 to 10000 nM,1000 to 10000 nM,< 100 nM,< 100 nM,< 100 nM,< 100 nM,> 10000 nM,A (A represents <100 nM)
"C[C@@H]1CN(c2ccc3nc(-c4cc5cn(C)nc5cc4O)nc(C(N)=O)c3c2)C[C@H](C)N1 [Compound 785, 6-((3R,5S)-3,5-dimethylpiperazin-1-yl)-2-(6-hydroxy-2-methyl-2H-indazol-5-yl)quinazoline-4-carboxamide 2,2,2-trifluoroacetate]",> 10000 nM,1000 to 10000 nM,1000 to 10000 nM,100 to 1000 nM,< 100 nM,< 100 nM,< 100 nM,1000 to 10000 nM,A (A represents <100 nM)
"Cc1c(O)c(-c2ncc3cc(N4CCC(N5CCC5)CC4)ccc3n2)cc2cn(C)nc12 [Compound 786, 5-{6-[4-(azetidin-1-yl)piperidin-1-yl]quinazolin-2-yl}-2,7-dimethylindazol-6-ol]",100 to 1000 nM,100 to 1000 nM,100 to 1000 nM,100 to 1000 nM,100 to 1000 nM,100 to 1000 nM,< 100 nM,100 to 1000 nM,B (B represents 100-1000 nM)
"Cn1cc2cc(-c3ncc4cc(N5CCC(N6CCC6)CC5)ccc4n3)cc(F)c2n1 [Compound 787, 6-[4-(azetidin-1-yl)piperidin-1-yl]-2-(7-fluoro-2-methylindazol-5-yl)quinazoline]",1000 to 10000 nM,1000 to 10000 nM,1000 to 10000 nM,100 to 1000 nM,100 to 1000 nM,100 to 1000 nM,< 100 nM,1000 to 10000 nM,B (B represents 100-1000 nM)
"Cc1nc(-c2cc(F)c3nn(C)cc3c2)nc2ccc(N3CCC(N4CCC4)CC3)cc12 [Compound 788, 6-[4-(azetidin-1-yl)piperidin-1-yl]-2-(7-fluoro-2-methylindazol-5-yl)-4-methylquinazoline]",1000 to 10000 nM,1000 to 10000 nM,1000 to 10000 nM,100 to 1000 nM,1000 to 10000 nM,1000 to 10000 nM,< 100 nM,1000 to 10000 nM,B (B represents 100-1000 nM)
COc1cc(-c2ncc3cc(N4C[C@H](C)N[C@@H](C)C4)ccc3n2)cn2cc(C)nc12 [Compound 816],1000 to 10000 nM,1000 to 10000 nM,1000 to 10000 nM,< 100 nM,100 to 1000 nM,100 to 1000 nM,< 100 nM,> 10000 nM,B (B represents 100-1000 nM)
Cc1cn2cc(-c3ncc4cc(N5C[C@H](C)N[C@@H](C)C5)ccc4n3)cc(C#N)c2n1 [Compound 817],1000 to 10000 nM,100 to 1000 nM,100 to 1000 nM,< 100 nM,< 100 nM,< 100 nM,< 100 nM,1000 to 10000 nM,B (B represents 100-1000 nM)
"Cc1nc2c(F)cc(-c3ncc4cc(N5C[C@H](C)N[C@@H](C)C5)ccc4n3)cn2n1 [Compound 819, 6-[(3S,5S)-3,5-dimethylpiperazin-1-yl]-2-{8-fluoro-2-methyl-[1,2,4]triazolo[1,5-a]pyridin-6-yl}quinazoline hydrochloride]",1000 to 10000 nM,1000 to 10000 nM,1000 to 10000 nM,100 to 1000 nM,100 to 1000 nM,100 to 1000 nM,< 100 nM,1000 to 10000 nM,B (B represents 100-1000 nM)
CCc1cn2cc(-c3ncc4cc(N5C[C@H](C)N[C@@H](C)C5)ccc4n3)cc(F)c2n1 [Compound 821],> 10000 nM,> 10000 nM,> 10000 nM,> 10000 nM,1000 to 10000 nM,1000 to 10000 nM,100 to 1000 nM,> 10000 nM,C (C represents 1000-9999 nM)
COc1nc(-c2ncc3cc(N4C[C@H](C)N[C@@H](C)C4)ccc3n2)cn2cc(C)nc12 [Compound 823],1000 to 10000 nM,1000 to 10000 nM,1000 to 10000 nM,100 to 1000 nM,100 to 1000 nM,100 to 1000 nM,< 100 nM,> 10000 nM,B (B represents 100-1000 nM)
Cc1cn2cc(-c3ncc4cc(N5C[C@H](C)N(C)[C@@H](C)C5)ccc4n3)cc(F)c2n1 [Compound 824],1000 to 10000 nM,100 to 1000 nM,100 to 1000 nM,100 to 1000 nM,100 to 1000 nM,100 to 1000 nM,< 100 nM,1000 to 10000 nM,B (B represents 100-1000 nM)
"Cc1nc2c(F)cc(-c3ncc4cc(N5C[C@@H](C)N[C@@H](C)C5)ccc4n3)cn2n1 [Compound 825, 6-[(3R,5S)-3,5-dimethylpiperazin-1-yl]-2-{8-fluoro-2-methyl-[1,2,4]triazolo[1,5-a]pyridin-6-yl}quinazoline]",1000 to 10000 nM,1000 to 10000 nM,1000 to 10000 nM,100 to 1000 nM,100 to 1000 nM,100 to 1000 nM,< 100 nM,1000 to 10000 nM,C (C represents 1000-9999 nM)
"Cc1cn2cc(-c3ncc4cc(N5C[C@@H](C)N(C)[C@@H](C)C5)ccc4n3)cc(F)c2n1 [Compound 826, 2-{8-fluoro-2-methylimidazo[1,2-a]pyridin-6-yl}-6-[(3R,5S)-3,4,5-trimethylpiperazin-1-yl]quinazoline]",1000 to 10000 nM,1000 to 10000 nM,1000 to 10000 nM,< 100 nM,100 to 1000 nM,100 to 1000 nM,< 100 nM,1000 to 10000 nM,B (B represents 100-1000 nM)
